In patent US20240365781A1, “SYNERGISTICALLY EFFECTIVE HERBICIDE COMPOSITION COMPRISING PELARGONIC ACID AND FLAZASULFURON” (Belchim Crop Protection NV, priority 2017, published 2024):

Tests used:
Type in all cases: in vivo
[1] = tested on: Poa annua; assay: post-emergence field trial under rows of apple trees, 150-200 L water/ha (Examples 10-12); conditions: 20 g of active compound/ha
Description: (§1) Herbicidal activity was determined by performing a post-emergence test. […] The corresponding mixture was in the form of a spray solution. Besides, spray solutions of individual compositions comprising pelargonic acid or flazasulfuron were used.
(§2) The spray solution was applied on plants of unwanted vegetation present on fields where perennial crops were grown.
(§3) After 5 to 88 days after application of the spray solution, the degree of damage to the unwanted vegetation is rated in % of plants of unwanted vegetation that were killed. Tests were performed on test fields (field trials).

[2] = tested on: Setaria viridis; assay: as above; conditions: 20 g of active compound/ha
Description: as §1, §2, §3

[3] = tested on: Chenopodium album; assay: as above; conditions: 20 g of active compound/ha
Description: as §1, §2, §3

[4] = tested on: Stellaria media; assay: as above; conditions: 20 g of active compound/ha
Description: as §1, §2, §3

[5] = tested on: Veronica persicae; assay: as above; conditions: 20 g of active compound/ha
Description: as §1, §2, §3

[6] = tested on: Trifolium repens; assay: as above; conditions: 20 g of active compound/ha
Description: as §1, §2, §3

[7] = tested on: Sonchus oleracea; assay: as above; conditions: 20 g of active compound/ha
Description: as §1, §2, §3

[8] = tested on: Lolium multiflorum; assay: as above; conditions: 20 g of active compound/ha
Description: as §1, §2, §3

[9] = tested on: Senecio vulgaris; assay: as above; conditions: 20 g of active compound/ha
Description: as §1, §2, §3

[10] = tested on: Capsella bursa-pastoris; assay: as above; conditions: 20 g of active compound/ha
Description: as §1, §2, §3

[11] = tested on: Taraxacum officinalis; assay: as above; conditions: 20 g of active compound/ha
Description: as §1, §2, §3

[12] = tested on: Digitaria sanguinalis and Setaria pumila; assay: post-emergence field trial under rows of vines, 150-200 L water/ha (Examples 6-9); conditions: flazasulfuron 40 g/ha
From the text: The expected activity of a given combination of two or three herbicides can be calculated as follows according to a calculation method by Colby (cf. COLBY, S. R.: “Calculating synergistic and antagonistic responses of herbicide combinations”, • Weeds 15, pages 20-22, 1967): • If X=% damage by herbicide (A) at an application rate of m g/ha, • Y=% damage by herbicide (B) at an application rate of n g/ha, • E=the expected damage by herbicides (A) and (B) at application rates of m and n […] and, • then for a combination:
Individual compositions comprising pelargonic acid or flazasulfuron are compared with a herbicide composition according to the invention comprising pelargonic acid and flazasulfuron.
as §1, §2, §3

COc1cc(OC)nc(NC(=O)NS(=O)(=O)c2ncccc2C(F)(F)F)n1 [Flazasulfuron, 1-(4,6-dimethoxypyrimidin-2-yl)-3-(3-trifluoromethyl-2-pyridylsulfonyl)urea]
herbicidal effect (%) ([1]; Poa annua/6 d): 10% | herbicidal effect (%) ([1]; Poa annua/16 d): 53% | herbicidal effect (%) ([1]; Poa annua/30 d): 60% | herbicidal effect (%) ([1]; Poa annua/57 d): 58% | herbicidal effect (%) ([1]; Poa annua/78 d): 83% | herbicidal effect (%) ([2]; Setaria viridis/6 d): 10% | herbicidal effect (%) ([2]; Setaria viridis/16 d): 50% | herbicidal effect (%) ([2]; Setaria viridis/30 d): 55% | herbicidal effect (%) ([2]; Setaria viridis/57 d): 53% | herbicidal effect (%) ([2]; Setaria viridis/78 d): 43% | herbicidal effect (%) ([3]; Chenopodium album/6 d): 13% | herbicidal effect (%) ([3]; Chenopodium album/16 d): 59% | herbicidal effect (%) ([3]; Chenopodium album/30 d): 63% | herbicidal effect (%) ([3]; Chenopodium album/57 d): 58% | herbicidal effect (%) ([3]; Chenopodium album/78 d): 64% | herbicidal effect (%) ([4]; Stellaria media/5 d): 0% | herbicidal effect (%) ([4]; Stellaria media/18 d): 79% | herbicidal effect (%) ([5]; Veronica persicae/7 d): 20% | herbicidal effect (%) ([5]; Veronica persicae/16 d): 4% | herbicidal effect (%) ([5]; Veronica persicae/26 d): 20% | herbicidal effect (%) ([5]; Veronica persicae/59 d): 0% | herbicidal effect (%) ([6]; Trifolium repens/7 d): 20% | herbicidal effect (%) ([6]; Trifolium repens/16 d): 40% | herbicidal effect (%) ([6]; Trifolium repens/26 d): 63% | herbicidal effect (%) ([6]; Trifolium repens/59 d): 68% | herbicidal effect (%) ([7]; Sonchus oleracea/6 d): 18% | herbicidal effect (%) ([7]; Sonchus oleracea/16 d): 28% | herbicidal effect (%) ([7]; Sonchus oleracea/30 d): 43% | herbicidal effect (%) ([7]; Sonchus oleracea/57 d): 23% | herbicidal effect (%) ([7]; Sonchus oleracea/78 d): 45% | herbicidal effect (%) ([8]; Lolium multiflorum/5 d): 0% | herbicidal effect (%) ([8]; Lolium multiflorum/18 d): 79% | herbicidal effect (%) ([8]; Lolium multiflorum/32 d): 87% | herbicidal effect (%) ([8]; Lolium multiflorum/61 d): 91% | herbicidal effect (%) ([8]; Lolium multiflorum/88 d): 89% | herbicidal effect (%) ([9]; Senecio vulgaris/6 d): 4% | herbicidal effect (%) ([9]; Senecio vulgaris/28 d): 13% | herbicidal effect (%) ([9]; Senecio vulgaris/58 d): 18% | herbicidal effect (%) ([10]; Capsella bursa-pastoris/6 d): 16% | herbicidal effect (%) ([10]; Capsella bursa-pastoris/16 d): 45% | herbicidal effect (%) ([10]; Capsella bursa-pastoris/30 d): 55% | herbicidal effect (%) ([10]; Capsella bursa-pastoris/57 d): 58% | herbicidal effect (%) ([11]; Taraxacum officinalis/5 d): 0% | herbicidal effect (%) ([11]; Taraxacum officinalis/18 d): 71% | herbicidal effect (%) ([11]; Taraxacum officinalis/32 d): 83% | herbicidal effect (%) ([11]; Taraxacum officinalis/61 d): 72% | herbicidal effect (%) ([11]; Taraxacum officinalis/88 d): 71% | herbicidal effect ([12]; 7 d, pelargonic acid 5440 g/ha): 13% | herbicidal effect ([12]; 7 d, pelargonic acid 6800 g/ha): 13% | herbicidal effect ([12]; 7 d, pelargonic acid 8160 g/ha): 13% | herbicidal effect ([12]; 7 d, pelargonic acid 10880 g/ha): 13% | herbicidal effect ([12]; 14 d, pelargonic acid 5440 g/ha): 91% | herbicidal effect ([12]; 14 d, pelargonic acid 8160 g/ha): 91% | herbicidal effect ([12]; 14 d, pelargonic acid 10880 g/ha): 91% | herbicidal effect ([12]; 28 d, pelargonic acid 5440 g/ha): 90% | herbicidal effect ([12]; 28 d, pelargonic acid 6800 g/ha): 90% | herbicidal effect ([12]; 28 d, pelargonic acid 8160 g/ha): 90% | herbicidal effect ([12]; 28 d, pelargonic acid 10880 g/ha): 90% | herbicidal effect ([12]; 65 d, pelargonic acid 5440 g/ha): 98% | herbicidal effect ([12]; 65 d, pelargonic acid 8160 g/ha): 98% | herbicidal effect ([12]; 65 d, pelargonic acid 10880 g/ha): 98%
